Values of other authors as cited in US20250375436A1, “SERDEXMETHYLPHENIDATE FOR TREATMENT OF IDIOPATHIC HYPERSOMNIA” (ZEVRA THERAPEUTICS, INC., priority 2024, published 2025).

Tested on: Patients with IH
Details: cited from earlier work

## O=C(O)CCCO [oxybate]
In vivo
  TEAE anxiety: 11%
  TEAE dizziness: 12%
  TEAE headache: 18%
  TEAE nausea: 22 % of subjects
  TEAE vomiting: 11%
oxybate-treated patients
  Patients reporting worsening symptoms (PGI-C scale): 21%
